Source: paper PMC12406721, “Chronic integrated stress response causes dysregulated cholesterol synthesis in white matter disease” (JCI Insight, 2025)

What was measured:
[1] = target: T1, eIF2B (Mus musculus, UniProt Q61749+Q99LD9); experiment: 2BAct dose response in N208Y cells (read-out only in supplement); assay type: cell-based; details: activator, cell line not restated, read-out not told in main text
T1 construct: gene Eif2b2; endogenous complex in MIN-6 cells or their lysate; decamer α2β2δ2(γε)2; alpha subunit strongly depleted in N208Y cells (mostly octamer β2δ2γ2ε2); with Translation initiation factor eIF2B subunit alpha; Translation initiation factor eIF2B subunit gamma; Translation initiation factor eIF2B subunit epsilon
T1 sequence (Q99LD9 whole entry): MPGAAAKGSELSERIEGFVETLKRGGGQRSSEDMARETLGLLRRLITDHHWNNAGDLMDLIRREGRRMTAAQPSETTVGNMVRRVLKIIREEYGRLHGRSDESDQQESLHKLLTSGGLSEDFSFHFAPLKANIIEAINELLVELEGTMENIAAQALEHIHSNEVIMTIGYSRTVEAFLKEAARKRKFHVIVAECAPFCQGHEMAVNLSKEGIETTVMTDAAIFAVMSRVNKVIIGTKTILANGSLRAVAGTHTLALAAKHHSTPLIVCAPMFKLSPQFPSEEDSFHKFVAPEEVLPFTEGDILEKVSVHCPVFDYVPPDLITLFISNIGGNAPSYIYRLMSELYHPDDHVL
T1 sequence (Q61749 2-524): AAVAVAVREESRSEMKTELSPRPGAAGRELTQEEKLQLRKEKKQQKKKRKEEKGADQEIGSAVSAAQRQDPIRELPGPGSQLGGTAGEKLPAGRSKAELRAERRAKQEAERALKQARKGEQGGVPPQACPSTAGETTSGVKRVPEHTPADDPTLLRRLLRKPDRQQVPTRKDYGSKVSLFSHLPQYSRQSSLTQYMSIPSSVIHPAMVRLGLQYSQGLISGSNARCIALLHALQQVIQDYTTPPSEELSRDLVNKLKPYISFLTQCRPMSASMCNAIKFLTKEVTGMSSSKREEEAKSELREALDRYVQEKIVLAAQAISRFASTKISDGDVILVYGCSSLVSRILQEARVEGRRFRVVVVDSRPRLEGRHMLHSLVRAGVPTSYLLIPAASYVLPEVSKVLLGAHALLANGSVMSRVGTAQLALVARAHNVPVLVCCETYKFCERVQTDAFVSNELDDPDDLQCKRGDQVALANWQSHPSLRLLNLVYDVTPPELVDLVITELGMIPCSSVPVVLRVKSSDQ
T1 sequence (Q99LC8 whole entry N208Y partner): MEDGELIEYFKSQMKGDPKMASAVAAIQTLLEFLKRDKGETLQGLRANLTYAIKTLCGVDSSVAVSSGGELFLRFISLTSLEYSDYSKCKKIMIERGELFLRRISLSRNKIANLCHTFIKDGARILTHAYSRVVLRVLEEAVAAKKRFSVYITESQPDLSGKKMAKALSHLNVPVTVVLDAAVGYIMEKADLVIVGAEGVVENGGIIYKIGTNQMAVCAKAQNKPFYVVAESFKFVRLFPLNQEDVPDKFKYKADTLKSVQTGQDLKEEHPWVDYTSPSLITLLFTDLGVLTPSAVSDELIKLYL
T1 sequence (Q8CHW4 whole entry partner): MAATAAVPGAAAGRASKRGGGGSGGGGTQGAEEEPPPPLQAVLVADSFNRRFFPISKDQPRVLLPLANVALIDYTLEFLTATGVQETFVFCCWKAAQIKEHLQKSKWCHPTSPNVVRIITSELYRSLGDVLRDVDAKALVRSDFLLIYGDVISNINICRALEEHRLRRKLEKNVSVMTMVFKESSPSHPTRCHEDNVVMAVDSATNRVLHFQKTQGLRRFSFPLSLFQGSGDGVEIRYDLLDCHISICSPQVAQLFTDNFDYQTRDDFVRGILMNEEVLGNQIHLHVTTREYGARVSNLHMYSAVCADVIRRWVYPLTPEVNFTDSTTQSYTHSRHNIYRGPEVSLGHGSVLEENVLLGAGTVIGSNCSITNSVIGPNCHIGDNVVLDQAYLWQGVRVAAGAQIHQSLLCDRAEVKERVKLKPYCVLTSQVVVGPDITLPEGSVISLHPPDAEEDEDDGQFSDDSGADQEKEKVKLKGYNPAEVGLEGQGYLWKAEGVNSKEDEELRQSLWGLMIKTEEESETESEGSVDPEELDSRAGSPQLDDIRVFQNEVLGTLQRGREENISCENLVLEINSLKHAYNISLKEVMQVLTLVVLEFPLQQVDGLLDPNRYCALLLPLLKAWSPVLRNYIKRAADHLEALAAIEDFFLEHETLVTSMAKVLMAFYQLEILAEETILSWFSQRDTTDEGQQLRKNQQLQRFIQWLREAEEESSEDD

[2] = target: T2, eIF2B-α (Homo sapiens, UniProt Q14232); experiment: NanoDSF thermal unfolding; assay type: binding; details: stabilises; concentration not told in main text
T2 construct: gene EIF2B1; purified recombinant alpha subunit, homodimer
T2 sequence (Q14232 1-305): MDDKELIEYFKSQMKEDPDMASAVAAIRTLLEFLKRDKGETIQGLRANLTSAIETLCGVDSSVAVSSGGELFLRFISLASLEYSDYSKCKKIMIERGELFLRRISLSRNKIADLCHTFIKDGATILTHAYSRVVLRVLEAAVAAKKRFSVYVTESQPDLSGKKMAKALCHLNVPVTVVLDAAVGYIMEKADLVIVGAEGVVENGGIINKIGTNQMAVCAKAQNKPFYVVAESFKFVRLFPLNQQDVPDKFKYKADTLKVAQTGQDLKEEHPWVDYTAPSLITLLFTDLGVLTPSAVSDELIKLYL

**Q.** How did the EC50 [1] turn out when `O=C(COc1ccc(Cl)c(F)c1)NC12CC(NC(=O)c3cnc(C(F)F)cn3)(C1)C2` [2BAct] was run?
**A.** 27.8 nM

**Q.** `O=P(O)(O)OC[C@H]1OC(O)(CO)[C@@H](O)[C@@H]1O` (some centres unmarked) [fructose-6-phosphate] was tested. Which Tm [2] did it give?
**A.** addition of F6P further increased the stability of WT eIF2B-α
